# Assays:
# [1] = test system: duckweed Lemnna paucicostata; assay: Growth of duckweed (increase in leaf area); assay type: in vivo; settings: leaf area after 8-10 days, read-out: Growth inhibition (% of the control); for inhibition at 100 µM: use concentration 10^-4 M; for inhibition at 10 µM: use concentration 10^-5 M; for inhibition at 1 µM: use concentration 10^-6 M
# Protocol: The effect of the herbicidal compounds according to the invention on the growth of duckweed can be seen from the following test results: p The duckweed Lemnna paucicostata was grown under sterile conditions in 250 ml glass vessels containing 100 ml of inorganic nutrient solution supplemented with 1% sucrose, as described by Grossmann et al., Pesticide Science 35 (1992), 283-289. At the beginning of the test, 150 μl of a solution of active ingredient in acetone (stock solution: 100-fold concentrated) were pipetted into Petri dishes (diameter 6 cm, height 1.5 cm; Greiner, Frickenhausen) containing 15 ml of nutrient solution (without added sucrose). Only the solvent component of the active ingredient solution was added to the nutrient solution for the control tests. Then, 4 Lemna plants were introduced into each dish, the dishes were covered with lids and incubated in a controlled-environment cabinet at 25° C. under permanent light conditions (Phillips TL white neon tubes, approx. 40 μmol m^-2 s^-1; λ=400-750 nm). After 8-10 days, the increase in leaf area was determined using an imaging apparatus (Imago, Compulog Computer Syst., Boblingen) as growth parameter, and this was used to calculate the % growth inhibition relative to the control.
# [2] = molecular target: T1, ferredoxin:NADP reductase (Spinacia oleracea, UniProt P00455); assay: Inhibition of diaphorase reaction of ferredoxin:NADP reductase; assay type: biochemical, spinach
# T1 construct: from spinach leaves--obtainable from Sigma, Germany; purchased Sigma, Germany; host or cells: spinach leaves
# T1 sequence (P00455 56-369): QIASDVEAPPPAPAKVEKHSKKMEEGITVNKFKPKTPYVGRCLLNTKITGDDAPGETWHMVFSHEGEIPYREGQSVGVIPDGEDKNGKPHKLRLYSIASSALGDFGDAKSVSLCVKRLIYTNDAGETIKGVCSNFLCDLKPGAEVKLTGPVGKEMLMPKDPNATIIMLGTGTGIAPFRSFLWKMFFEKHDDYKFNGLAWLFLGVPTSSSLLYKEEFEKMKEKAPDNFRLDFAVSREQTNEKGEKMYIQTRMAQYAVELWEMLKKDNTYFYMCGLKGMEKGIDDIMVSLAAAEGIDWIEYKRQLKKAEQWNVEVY
# Protocol: (§1) Ferredoxin:NADP reductase not only catalyzes the physiologically relevant, reversible reaction of NADP with ferrecoxin (ferredoxin reductase activity), but also the NADPH-dependent reduction of potassium hexacyanoferrate(III) (diaphorase activity). Methods for measuring these reactions are described in the literature (Meth. Enzymol., Volumes 23 and 69).
# The diaphorase activity can be determined by incubating, for example, chloroplasts or isolated ferredoxin:NADP reductase (Sigma) in 100 mM Tris/HCl buffer, pH 8.2+0.5 mM potassium hexacyanoferrate(III)+0.5 mM NADPH or an NADPH-regenerating system such as, for example, 0.5 mM NADP+2.5 mM glucose-6-phosphate+1 unit/ml glucose-6-phosphate dehydrogenase at 25° C. and monitoring the decrease in absorption at 420 nm. An incubation mixture without ferredoxin:NADP reductase may be used as blank value.
# (§2) The action of a test substance can be tested by dissolving the substance in a suitable solvent such as, for example, dimethyl sulfoxide and pipetting an aliquot of the solution to the above-described incubation mixture. A corresponding aliquot of the pure solvent may be used as control. The action of the test substance can be determined by comparing the absorption changes of the respective incubation batches.
# [3] = molecular target: T1, ferredoxin:NADP reductase; assay: Inhibition of ferredoxin reductase reaction of ferredoxin:NADP reductase; assay type: biochemical, spinach; settings: 1 mM
# Protocol: as §1
# The ferredoxin reductase activity can be determined by incubating, for example, chloroplast extracts or isolated ferredoxin:NADP reductase (Sigma) in 100 mM Tris/HCl buffer, pH 7.8+0.2 mM NADPH+0.65 mg/ml cytochrome C+0.1 mg/ml ferredoxin at 25° C. and measuring the change in the absorption at 550 nm, or the difference in absorption change at 550 nm and 540 nm. An incubation mixture without ferredoxin can be used as blank value.
# as §2
SMILES,inhibition at 100 µM [1] [%],inhibition at 50 µM [2] [%],"AU/min *10^-3 (diaphorase reaction, decrease in absorption at 420 nm) ([2]; 50 μM, mean +/- standard deviation of 6 experiments, control (DMSO) 31.3, blank without enzyme 9.4)",inhibition at 1000 µM [3] [%],"E (550 -540) (ferredoxin reductase reaction) ([3]; mean +/- standard deviation of 6 experiments, control (DMSO) 0.692, blank without ferredoxin 0.027)",inhibition at 10 µM [1] [%],inhibition at 1 µM [1] [%]
CCCCCCCCCCCCCCCCNS(=O)(=O)c1ccc(S(=O)(=O)NN=c2sc3ccc(S(=O)(=O)C(F)F)cc3n2C)cc1 [A.55],28,–,–,–,–,–,–
CCCCCCCCCCCCCCCCS(=O)(=O)c1ccc(S(=O)(=O)O)cc1C(=O)NN=c1sc2ccc(S(=O)(=O)O)cc2n1C [B.3],96,102,9.0 +/- 1.4 AU/min *10^-3,90,0.093 +/- 0.026,66,54
CCCCCCCCCCCCCCCCNS(=O)(=O)c1ccc(S(=O)(=O)NN=c2sc3ccccc3n2C)cc1 [A.51],29,–,–,–,–,–,–
CCCCCCCCCCCCCCCCS(=O)(=O)Nc1cccc(S(=O)(=O)NN=c2sc3ccc(S(=O)(=O)C(F)F)cc3n2C)c1 [A.47],18,–,–,–,–,–,–
CCCCCCCCCCCCCCCCOc1ccc(C(=O)O)cc1S(=O)(=O)NN=c1sc2ccc(S(=O)(=O)O)cc2n1C [A.28],60,–,–,–,–,42,26
CCCCCCCCCCCCCCCCNS(=O)(=O)c1ccc(S(=O)(=O)NN=c2sc3ccc(S(=O)(=O)O)cc3n2C)cc1 [A.52],89,–,–,–,–,12,–
CCCCCCCCCCCCCCCCS(=O)(=O)c1ccc(S(=O)(=O)NN=c2sc3cc(S(=O)(=O)O)ccc3n2C)cc1NC(C)=O [A.46],56,–,–,–,–,33,13
CCCCCCCCCCCCCCCCS(=O)(=O)N(C)c1cccc(S(=O)(=O)NN=c2sc3ccc(S(=O)(=O)O)cc3n2C)c1 [A.48],42,–,–,–,–,34,28
CCCCCCCCCCCCCCCCS(=O)(=O)c1ccc(S(=O)(=O)NN=c2sc3ccc(S(=O)(=O)O)cc3n2C)cc1C(=O)O [A.49],77,–,–,–,–,49,19

# Source: patent US6124242A, “Herbicidal compositions and processes based on ferrodoxin:NADP reductase inhibitors” (BASF Aktiengesellschaft, priority 1998, dated 2000)
